{"source": "patent US12295992B2", "about": "“Use of ALDH1A and agonist, catalyst and inhibitor thereof” (SHANGHAI INSTITUTES FOR BIOLOGICAL SCIENCES, CHINESE …, priority 2017, dated 2025)", "key": {"wild-type C57BL/6 mice [1]": {"system": "wild-type C57BL/6 mice", "assay": "Self-grooming experiment in wild-type mice", "type": "in vivo", "settings": "six weeks, within 10 minutes", "description": "Four-week-aged mice were given a low dose (0.1 mg/g) or a high dose (0.3 mg/g) of DSF (Sigma, dissolved in olive oil) every two days for 6 weeks. The control group was only given the solvent olive oil (Aladdin). The body weight of the mice was weighed weekly. After 6 weeks of gastric administration, the test of mouse behavior was started. The brains of the control and DSF mice were dissected and taken. After freezing with liquid nitrogen, the brain tissue was homogenized, and ATRA was quantified by the HPLC-MS/MS method as described hereinafter. The mice used in the self-grooming experiment were placed in a cage box filled with a filler having a thickness of about 0.5-1 cm for 10 minutes in advance for accommodation. Then, within 10 minutes, the time of self-grooming in mice was recorded by a double-blind experimenter through a stopwatch."}, "wild-type C57BL/6 mice [2]": {"system": "wild-type C57BL/6 mice", "assay": "Three-chamber social experiment in wild-type mice", "type": "in vivo", "settings": "DSF 0.3 mg/g", "description": "Four-week-aged mice were given a low dose (0.1 mg/g) or a high dose (0.3 mg/g) of DSF (Sigma, dissolved in olive oil) every two days for 6 weeks. The control group was only given the solvent olive oil (Aladdin). The body weight of the mice was weighed weekly. After 6 weeks of gastric administration, the test of mouse behavior was started. The brains of the control and DSF mice were dissected and taken. After freezing with liquid nitrogen, the brain tissue was homogenized, and ATRA was quantified by the HPLC-MS/MS method as described hereinafter. A three-chamber social experiment was performed according to previously reported procedures (Sztainberg et al., 2015). Briefly, a transparent acrylic box for social experiment was divided into three chambers of uniform size with removable gates mounted on the partition board. An inverted iron mesh cup was placed in each of the left and right chambers. Two days before the experiment, C57BL/6 mice, which were from different family and whose age was matched with the test mice, were placed in two cups as strange mice for 1 hour each day for accommodation. Test mice were randomized into groups and accommodated to the test chamber for 1 hour before the test started. Each test mouse was placed in the center chamber for 10 minutes for self-exploration, and the chamber door was closed. In the first stage, a strange mouse was randomly placed in the left or right cup (avoiding positional bias), and the inanimate article was placed in the cup on the other side. […] In the second stage, the test mice were kept in the chamber of the strange mouse for 5 minutes, and then another strange mouse was placed in the cup in which the article was previously placed."}, "wild-type C57BL/6 mice [3]": {"system": "wild-type C57BL/6 mice", "assay": "Open field experiment in wild-type mice", "type": "in vivo", "settings": "DSF 0.1 or 0.3 mg/g vs solvent", "description": "(§1) Four-week-aged mice were given a low dose (0.1 mg/g) or a high dose (0.3 mg/g) of DSF (Sigma, dissolved in olive oil) every two days for 6 weeks. The control group was only given the solvent olive oil (Aladdin). The body weight of the mice was weighed weekly. After 6 weeks of gastric administration, the test of mouse behavior was started. The brains of the control and DSF mice were dissected and taken. After freezing with liquid nitrogen, the brain tissue was homogenized, and ATRA was quantified by the HPLC-MS/MS method as described hereinafter.\nMice were randomized into groups and placed in an open field instrument (Med Associates) for 30 minutes. The Ethovision automatic recording software (Noldus) was used to record the time spent by the mouse in the central region (⅓ to ⅔ of length on each side of the region) and to calculate the ratio of the distance walked in the central region to the total distance."}, "wild-type C57BL/6 mice [4]": {"system": "wild-type C57BL/6 mice", "assay": "Rotating rod experiment in wild-type mice", "type": "in vivo", "settings": "DSF 0.1 or 0.3 mg/g", "description": "as §1\nAfter mice were randomized into groups, the motor coordination ability of the mice was recorded using a Rotamex rotarod instrument (Columnbus Instruments). On the same day, the test mice were tested 3 times, each experiment was lasted 5 minutes, and the rotating rod was accelerated from 4 revolutions […]. There were at least 30 minutes between two experiments. The time before the test mice dropped off the rod was automatically recorded by an infrared detection system, and the results of the last test were finally compared."}, "wild-type C57BL/6 mice [5]": {"system": "wild-type C57BL/6 mice", "assay": "Elevated cross maze experiment in wild-type mice", "type": "in vivo", "settings": "DSF 0.1 or 0.3 mg/g vs solvent", "description": "as §1\nMice were placed in a closed arm of an elevated cross maze (Med Associates) and recording was started for 5 minutes. Image recording was performed using a camera hanged in the air, and the number of times that the mouse entered into the open arm and the closed arm within 5 minutes was recorded and analyzed using ANY-maze software (Stoelting)."}, "[6]": {"system": "ATRA synthesis in the mouse brain", "assay": "HPLC-MS/MS quantification of ATRA in mouse brain tissue", "type": "in vivo, mice", "settings": "six weeks", "description": "Four-week-aged mice were given a low dose (0.1 mg/g) or a high dose (0.3 mg/g) of DSF (Sigma, dissolved in olive oil) every two days for 6 weeks. The control group was only given the solvent olive oil (Aladdin). The body weight of the mice was weighed weekly. After 6 weeks of gastric administration, the test of mouse behavior was started. The brains of the control and DSF mice were dissected and taken. After freezing with liquid nitrogen, the brain tissue was homogenized, and ATRA was quantified by the HPLC-MS/MS method as described hereinafter. Sample preparation, retinoid extraction and subsequent HPLC-MS/MS analysis were performed according to the previously reported procedures (Kane et al., 2010). The frozen brains of mice were homogenized on ice with 2 mL of 0.9% saline under red light condition. 13-cis-retinoic acid-d5 (20 ng/mL, TRC) was added into the tissue homogenate as an internal reference. […] The samples were analyzed by HPLC on a 2.1×100 mm Supelcosil ABZ+PLUS column (3 urn, Sigma) column. […] The instrumentation was an AB Sciex 4000 QTRAP LC-MS/MS system, and the ATRA component was quantified in the APCI cation mode, and the ATRA content in each sample was corrected using a standard ATRA curve."}, "[7]": {"assay": "Body weight of mice during DSF administration", "type": "in vivo", "settings": "DSF 0.1 or 0.3 mg/g, weighed weekly, six weeks", "description": "as §1"}}, "data": [{"smiles": "CCN(CC)C(=S)SSC(=S)N(CC)CC", "note": "[DSF, disulfiram]", "values": [{"measurement": "time of self-grooming", "setting": "wild-type C57BL/6 mice [1]; DSF 0.1 mg/g", "value": 30, "unit": "s"}, {"measurement": "time of self-grooming", "setting": "wild-type C57BL/6 mice [1]; DSF 0.3 mg/g", "value": 42, "unit": "s"}, {"measurement": "increase of time spent in the chamber of familiar social mouse vs solvent group", "setting": "wild-type C57BL/6 mice [2]", "value": 50, "unit": "%"}, {"measurement": "reduction of time staying in the chamber of strange social mouse vs solvent group", "setting": "wild-type C57BL/6 mice [2]", "value": 30, "unit": "%"}, {"measurement": "distance of the movement in the open field", "setting": "wild-type C57BL/6 mice [3]", "value": "no difference"}, {"measurement": "time staying in the middle area of the open field", "setting": "wild-type C57BL/6 mice [3]", "value": "no difference"}, {"measurement": "sport ability (rotating rod)", "setting": "wild-type C57BL/6 mice [4]", "value": "did not affect the sport ability"}, {"measurement": "number of times entering the open arm as a percentage of all arm entry", "setting": "wild-type C57BL/6 mice [5]", "value": "no significant difference"}, {"measurement": "decrease of ATRA level in brain tissue vs solvent group", "setting": "[6]; DSF 0.1 mg/g oral every other day", "value": 30, "unit": "%"}, {"measurement": "decrease of ATRA level in brain tissue vs solvent group", "setting": "[6]; DSF 0.3 mg/g oral every other day", "value": 60, "unit": "%"}, {"measurement": "body weight between the groups", "setting": "[7]", "value": "no significant difference"}]}]}
